Our source for the T/C values is PubChem BioAssay AID330 (DTP/NCI, 2004).

This assay concerns P388 leukemia ip, CD2F1 mice, survival T/C. Put plainly: NCI In Vivo Anticancer Drug Screen. Data for tumor model P388 Leukemia (intraperitoneal) in CD2F1 (CDF1) mice. Particulars: endpoint: median survival time, higher = longer survival. In short, it runs like this: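 Mice carrying the transplanted tumor received test compound or vehicle. Survival was recorded in each group, and the value is the treated-group measurement divided by that of the vehicle-treated control group.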

Where [1] appears, read: dose: 60.0 mg/kg/injection, schedule: Q01DX005 (ip), vehicle: saline with Tween-80.
[2] abbreviates: dose: 50.0 mg/kg/injection, schedule: Q01DX005 (ip), vehicle: saline with Tween-80.
Setting [3] is: dose: 100.0 mg/kg/injection, schedule: Q01DX005 (ip), vehicle: saline with Tween-80.
Where [4] appears, read: dose: 200.0 mg/kg/injection, schedule: Q01DX005 (ip), vehicle: saline with Tween-80.
[5] abbreviates: dose: 100.0 mg/kg/injection, schedule: Q04DX003 (ip), vehicle: saline with Tween-80.
The mark [6] stands for this setting: dose: 200.0 mg/kg/injection, schedule: Q04DX003 (ip), vehicle: saline with Tween-80.
Setting [7] is: dose: 400.0 mg/kg/injection, schedule: Q04DX003 (ip), vehicle: saline with Tween-80.
[8] abbreviates: dose: 50.0 mg/kg/injection, schedule: Q01DX009 (ip), vehicle: Klucel (hydroxypropylcellulose) (HPC).
Where [9] appears, read: dose: 100.0 mg/kg/injection, schedule: Q01DX009 (ip), vehicle: Klucel (hydroxypropylcellulose) (HPC).
[10] abbreviates: dose: 200.0 mg/kg/injection, schedule: Q01DX009 (ip), vehicle: Klucel (hydroxypropylcellulose) (HPC).

Inconclusive results and toxic doses are left out.

`CC12N=C1CCCCCCCCCCCC2=O` (configuration not stated): the T/C reads like this: under setting [1], 101 % of control; (dose: 120.0 mg/kg/injection, schedule: Q01DX005 (ip), vehicle: saline with Tween-80) 100 % of control; (dose: 240.0 mg/kg/injection, schedule: Q01DX005 (ip), vehicle: saline with Tween-80) 108 % of control.
Turning to `NCCCCS(=O)(=O)Nc1ccc(Nc2c3ccccc3nc3cc([N+](=O)[O-])ccc23)cc1`, the T/C (dose: 22.0 mg/kg/injection, schedule: Q04DX003 (ip), vehicle: saline) was 122 % of control; the T/C (dose: 38.9 mg/kg/injection, schedule: Q04DX003 (ip), vehicle: water) is 164 % of control; the T/C (dose: 50.0 mg/kg/injection, schedule: Q04DX003 (ip), vehicle: saline) was 150 % of control; the T/C (dose: 64.8 mg/kg/injection, schedule: Q04DX003 (ip), vehicle: water) was 180 % of control; the T/C (dose: 75.0 mg/kg/injection, schedule: Q04DX003 (ip), vehicle: saline) is 150 % of control; the T/C (dose: 108.0 mg/kg/injection, schedule: Q04DX003 (ip), vehicle: water) is 198 % of control. Besides, the T/C is, setting by setting: (dose: 150.0 mg/kg/injection, schedule: Q04DX003 (ip), vehicle: saline) 172 % of control; (dose: 180.0 mg/kg/injection, schedule: Q04DX003 (ip), vehicle: water) 99 % of control; (dose: 300.0 mg/kg/injection, schedule: Q04DX003 (ip), vehicle: saline) 118 % of control.
Regarding `CC(=O)C[n+]1cccc(S)c1-c1ccccc1`, the T/C is, setting by setting: under setting [2], 97 % of control; under setting [3], 105 % of control; under setting [4], 97 % of control.
On to `CSCCCNC(=O)c1csc(CCNC(=O)c2ccccc2)n1`, for which the T/C was 104 % of control (dose: 100.0 mg/kg/injection, schedule: Q01DX009 (ip), vehicle: saline with Tween-80); 109 % of control (dose: 200.0 mg/kg/injection, schedule: Q01DX009 (ip), vehicle: saline with Tween-80); 104 % of control (dose: 400.0 mg/kg/injection, schedule: Q01DX009 (ip), vehicle: saline with Tween-80).
For `CC(=O)NS(=O)(=O)c1ccc(N=NC2C(=O)N(C(=O)c3cccnc3)N=C2C)cc1` (configuration not stated), the T/C is, setting by setting: under setting [5], 101 % of control; under setting [6], 104 % of control; under setting [7], 109 % of control.
On to `CCCCCCC(=O)CC1(C(=O)OC)NC(=S)NC(=O)C1C#N` (configuration not stated), for which the T/C is 100 % of control (dose: 60.0 mg/kg/injection, schedule: Q01DX005 (ip), vehicle: Klucel (hydroxypropylcellulose) (HPC)); 103 % of control (dose: 120.0 mg/kg/injection, schedule: Q01DX005 (ip), vehicle: Klucel (hydroxypropylcellulose) (HPC)); 97 % of control (dose: 240.0 mg/kg/injection, schedule: Q01DX005 (ip), vehicle: Klucel (hydroxypropylcellulose) (HPC)).
As for `COc1ccccc1Nc1nc(-c2ccc([N+](=O)[O-])o2)cs1`, the T/C reads like this: under setting [2], 93 % of control; under setting [3], 86 % of control; under setting [4], 88 % of control.
On to `Cc1c([O-])on[n+]1Cc1ccccc1`, for which the T/C under setting [1] is 102 % of control.
Turning to `O=C(OCC#CCOC(=O)C(Cl)Cl)C(Cl)Cl`, the T/C reads like this: under setting [5], 108 % of control; under setting [6], 104 % of control; under setting [7], 100 % of control.
`CC(=O)Nc1c2ccccc2nc2ccccc12`: the T/C was 95 % of control under setting [2], 91 % of control under setting [3] and 94 % of control under setting [4].
Regarding `CC(C)CC(NC(CCC(=O)O)C(=O)O)C(=O)O` (configuration not stated), the T/C was 106 % of control (dose: 2.25 mg/kg/injection, schedule: Q01DX005 (ip), vehicle: saline); 106 % of control (dose: 4.5 mg/kg/injection, schedule: Q01DX005 (ip), vehicle: saline); 96 % of control (dose: 9.0 mg/kg/injection, schedule: Q01DX005 (ip), vehicle: saline); 104 % of control (dose: 18.0 mg/kg/injection, schedule: Q01DX005 (ip), vehicle: saline).
As for `CC(=O)NNC(=O)c1ccccn1`, the T/C (dose: 12.5 mg/kg/injection, schedule: Q01DX009 (ip), vehicle: saline) was 90 % of control; the T/C (dose: 25.0 mg/kg/injection, schedule: Q01DX009 (ip), vehicle: saline) is 92 % of control; the T/C (dose: 50.0 mg/kg/injection, schedule: Q01DX009 (ip), vehicle: saline) was 96 % of control; the T/C (dose: 50.0 mg/kg/injection, schedule: Q01DX009 (ip), vehicle: water) is 110 % of control; the T/C (dose: 75.0 mg/kg/injection, schedule: Q01DX009 (ip), vehicle: water) is 110 % of control; the T/C (dose: 100.0 mg/kg/injection, schedule: Q01DX009 (ip), vehicle: saline) was 100 % of control. In addition, the T/C runs as follows: (dose: 100.0 mg/kg/injection, schedule: Q01DX009 (ip), vehicle: water) 120 % of control; (dose: 125.0 mg/kg/injection, schedule: Q01DX009 (ip), vehicle: water) 120 % of control; (dose: 200.0 mg/kg/injection, schedule: Q01DX009 (ip), vehicle: saline) 88 % of control.
`O=C1c2cccc(Oc3ccccc3)c2C(=O)c2cccc(Oc3ccccc3)c21`: the T/C reads like this: under setting [5], 95 % of control; under setting [6], 86 % of control; under setting [7], 90 % of control.
For `Cc1coc2c1C(O)C1(C)C(C)CCC(O)C1C2=O` (configuration not stated), the T/C was 101 % of control (dose: 7.5 mg/kg/injection, schedule: Q01DX009 (ip), vehicle: saline with Tween-80); 101 % of control (dose: 15.0 mg/kg/injection, schedule: Q01DX009 (ip), vehicle: saline with Tween-80); 101 % of control (dose: 30.0 mg/kg/injection, schedule: Q01DX009 (ip), vehicle: saline with Tween-80); 102 % of control (dose: 60.0 mg/kg/injection, schedule: Q01DX009 (ip), vehicle: saline with Tween-80).
For `COC(=O)c1ccccc1N1C(=O)c2ccccc2NP1(=O)Oc1ccccc1` (configuration not stated), the T/C by setting is: (dose: 25.0 mg/kg/injection, schedule: Q01DX005 (ip), vehicle: Klucel (hydroxypropylcellulose) (HPC)) 101 % of control; (dose: 50.0 mg/kg/injection, schedule: Q01DX005 (ip), vehicle: Klucel (hydroxypropylcellulose) (HPC)) 104 % of control; (dose: 100.0 mg/kg/injection, schedule: Q01DX005 (ip), vehicle: Klucel (hydroxypropylcellulose) (HPC)) 106 % of control; (dose: 200.0 mg/kg/injection, schedule: Q01DX005 (ip), vehicle: Klucel (hydroxypropylcellulose) (HPC)) 91 % of control.
Turning to `Clc1ccc(N=Cc2ccc(C=Nc3ccc(Cl)cn3)cc2)nc1`, the T/C was 91 % of control under setting [8], 94 % of control under setting [9] and 93 % of control under setting [10].
Take `COc1cc(C=NC2CCCCC2)c(Br)c(OC)c1OC`: the T/C (dose: 100.0 mg/kg/injection, schedule: Q01DX001 (ip), vehicle: Klucel (hydroxypropylcellulose) (HPC)) is 107 % of control; the T/C (dose: 200.0 mg/kg/injection, schedule: Q01DX001 (ip), vehicle: Klucel (hydroxypropylcellulose) (HPC)) is 107 % of control; the T/C (dose: 400.0 mg/kg/injection, schedule: Q01DX001 (ip), vehicle: Klucel (hydroxypropylcellulose) (HPC)) was 107 % of control.
For `C=C1[C@@H](NC)CC[C@]23C[C@]24CC[C@]2(C)[C@@H]([C@H](C)NC)[C@H](O)C[C@@]2(C)[C@@H]4CC[C@@H]13`, the T/C by setting is: (dose: 25.0 mg/kg/injection, schedule: Q01DX001 (ip), vehicle: saline with Tween-80) 104 % of control; (dose: 50.0 mg/kg/injection, schedule: Q01DX001 (ip), vehicle: saline with Tween-80) 99 % of control; (dose: 100.0 mg/kg/injection, schedule: Q01DX001 (ip), vehicle: saline with Tween-80) 104 % of control.
Take `c1ccc2c(c1)Sc1ccccc1N2Cc1cnc[nH]1`: the T/C by setting is: under setting [8], 101 % of control; (dose: 50.0 mg/kg/injection, schedule: Q01DX009 (ip), vehicle: alcohol) 114 % of control; under setting [9], 109 % of control; (dose: 100.0 mg/kg/injection, schedule: Q01DX009 (ip), vehicle: alcohol) 114 % of control; under setting [10], 118 % of control.
